Assay: xn = mol fraction of the nth substance listed

CC(=O)OCCC(C)C + O=[N+]([O-])c1ccccc1
viscosity [mPa·s], 101 kPa
Conditions	298.15 K	308.15 K
x1 = 0.0448	1.721	1.488
x1 = 0.1512	1.567	1.367
x1 = 0.249	1.439	1.267
x1 = 0.3494	1.321	1.174
x1 = 0.4412	1.222	1.096
x1 = 0.5	1.164	1.05
x1 = 0.5486	1.118	1.014
x1 = 0.6489	1.03	0.945
x1 = 0.7486	0.951	0.882
x1 = 0.8513	0.876	0.823
x1 = 0.9464	0.814	0.773

CC(=O)OCCC(C)C + CCCCN
303.15 K, 101 kPa
Conditions	viscosity [mPa·s]
x2 = 0.2734	0.7086
x2 = 0.4416	0.6996
x2 = 0.5646	0.6833
x2 = 0.6446	0.6711
x2 = 0.7489	0.6443
x2 = 0.8075	0.6212
x2 = 0.8664	0.5934
x2 = 0.8969	0.5868

CC(=O)Nc1ccccc1 + CO
viscosity [mPa·s], 101 kPa
Conditions	298.15 K	303.15 K	308.15 K	313.15 K
x1 = 0.08868	0.9964	0.918	0.8461	0.7805
x1 = 0.1132	1.158	1.057	0.9716	0.886

CCCOCC(C)OCC(C)O (stereo unspecified) + CCCCCCCO
298.15 K, 101 kPa
Conditions	viscosity [mPa·s]
x1 = 0.0145	5.795
x1 = 0.0297	5.725
x1 = 0.072	5.58
x1 = 0.1172	5.426
x1 = 0.1578	5.332
x1 = 0.2004	5.236
x1 = 0.2276	5.185
x1 = 0.2594	5.134
x1 = 0.3052	5.067
x1 = 0.4171	4.913
x1 = 0.4502	4.864
x1 = 0.5104	4.775
x1 = 0.5572	4.699
x1 = 0.6014	4.616
x1 = 0.6573	4.51
x1 = 0.7008	4.419
x1 = 0.7589	4.295
x1 = 0.8	4.207
x1 = 0.8512	4.098
x1 = 0.9118	3.985
x1 = 0.9578	3.916
x2 = 0.009	3.879
x2 = 0.0121	3.88

CCOP(OCC)OCC + c1ccncc1
298.15 K, 101 kPa
Conditions	viscosity [mPa·s]
x1 = 0.2	0.792
x1 = 0.4	0.76
x1 = 0.6	0.738
x1 = 0.8	0.707

CC(C)COCCO + O
298.15 K, 101 kPa
Conditions	viscosity [mPa·s]
x1 = 0.0037	0.9
x1 = 0.016	1.2
x1 = 0.0469	2.4
x1 = 0.0611	2.7
x1 = 0.11	3.65
x1 = 0.177	4.27
x1 = 0.263	4.4
x1 = 0.764	3.7

CC(=O)OCCC(C)C + ClC(Cl)(Cl)Cl
303.15 K, 101.3 kPa
Conditions	viscosity [mPa·s]
x1 = 0.1037	0.8143
x1 = 0.1985	0.8011
x1 = 0.302	0.7904
x1 = 0.4018	0.7782
x1 = 0.5027	0.7656
x1 = 0.603	0.7549
x1 = 0.7015	0.7451
x1 = 0.7985	0.7325
x1 = 0.9013	0.7155

CCCCCCCC/C=C\CCCCCCCC(=O)OCC + CCCCO
viscosity [mPa·s], 100 kPa
Conditions	x1 = 0.1	x1 = 0.2	x1 = 0.3	x1 = 0.4	x1 = 0.5	x1 = 0.6	x1 = 0.7	x1 = 0.8	x1 = 0.9
293.15 K	3.187	3.558	3.946	4.315	4.68	5.024	5.358	5.682	6.011
298.15 K	2.818	3.143	3.481	3.808	4.131	4.437	4.732	5.013	5.31
303.15 K	2.491	2.782	3.08	3.371	3.649	3.918	4.175	4.419	4.678
308.15 K	2.217	2.48	2.746	3.002	3.25	3.486	3.713	3.931	4.16
313.15 K	1.983	2.223	2.46	2.683	2.897	3.103	3.3	3.49	3.691
318.15 K	1.776	1.998	2.214	2.421	2.62	2.81	2.991	3.165	3.35
323.15 K	1.6	1.806	2.002	2.192	2.371	2.543	2.707	2.865	3.032

C=C(C)C(=O)OCc1ccccc1 + O=C1CCCCC1
viscosity [mPa·s], 101 kPa
Conditions	x2 = 0.1	x2 = 0.1999	x2 = 0.3	x2 = 0.3999	x2 = 0.5	x2 = 0.6	x2 = 0.7	x2 = 0.8	x2 = 0.9
298.15 K	2.208	2.141	2.079	2.038	2.002	1.972	1.95	1.943	1.934
308.15 K	1.816	1.765	1.718	1.687	1.656	1.632	1.617	1.602	1.589
318.15 K	1.519	1.484	1.447	1.422	1.398	1.383	1.369	1.356	1.348

CC(=O)Nc1ccccc1 + Nc1ccccc1
viscosity [mPa·s], 101.3 kPa
Conditions	298.15 K	323.15 K
x1 = 0.108	46.7	23.6
x1 = 0.195	113.4	42.5

O=C(O)C1CCCCC1 + CCCCCCCCCCO
viscosity [mPa·s], 101 kPa
Conditions	310 K	320 K
x2 = 0.0377	12.1	8.54
x2 = 0.0625	11.8	8.32
x2 = 0.1776	10.6	7.57
x2 = 0.2753	9.61	6.94
x2 = 0.4103	8.79	6.39
x2 = 0.4952	8.45	6.15
x2 = 0.5659	8.15	5.94
x2 = 0.6678	7.86	5.72
x2 = 0.7657	7.7	5.6
x2 = 0.8462	7.48	5.48
x2 = 0.9063	7.43	5.36
x2 = 0.9593	7.41	5.3

CCCC(=O)[O-].[NH3+]CCO + CCO
viscosity [mPa·s], 101 kPa
Conditions	x1 = 0.0158	x2 = 0.7685	x2 = 0.8306	x2 = 0.8824	x2 = 0.9289	x2 = 0.9483	x2 = 0.9671
293.15 K	1.608	15.79	8.436	4.968	2.91	2.364	1.944
298.15 K	1.458	13.23	7.272	4.398	2.598	2.148	1.752
303.15 K	1.35	11.24	6.33	3.882	2.34	1.92	1.602

— the CheMixHub viscosity set
